The values below come from paper PMC9791135, “A penetratin-derived peptide reduces the membrane permeabilization and cell toxicity of α-synuclein oligomers” (The Journal of Biological Chemistry, 2022).

Where a SMILES comes first, the peptide text is derived from it.

One data set has as its target T1, α-syn (Homo sapiens, UniProt P37840).
T1 construct: made in house; host or cells: Escherichia coli BL21 (DE3), plasmid pET11-D
Briefly: ThT fluorescence assay of unseeded α-syn fibrillation in the presence of peptides. Format: biochemical. The following applies: 1 mg/ml α-syn, 0–0.5 mg/ml peptide, 48 h; for ThT signal end level: unseeded ThT, 37 °C, versus α-syn alone. Here is the method:
To test the effects of these selected nine peptides on the aggregation of α-syn, we performed a thioflavin T (ThT) fluorescence assay in the presence of 1 mg/ml α-syn and 0 to 0.5 mg/ml peptide for 48 h (raw data in Fig. S3). Furthermore, the peptides alone were monitored for self-fibrillation. […] High concentrations of p222, p194, and p249 led to a decline in ThT fluorescence after reaching a plateau, possibly because of the formation of insoluble amorphous species. We also carried out seeding experiments by adding 5% sonicated preaggregated α-syn fibrils to the ThT assay.
About 150 μl of 70 μM (1 mg/ml) α-syn, 40 μM ThT, and varying amounts of peptides (0, 0.06, 0.125, 0. 25, 0.375, and 0.5 mg/ml) were transferred in triplicates to a black COSTAR 96-well clear bottom plate (Nunc, Thermo Fisher Scientific), and including a 3 mm diameter glass bead (Glaswarenfabrik Karl Hecht GmbH & Co KG) per well to increase reproducibility ([100]). The plate was sealed with Crystal Clear sealing tape (Hampton Research) and incubated at 37 °C in a CLARIOstar Plus (BMG LABTECH) fluorescence plate reader. Fibrillation was carried out for ∼48 h with 300 rpm double orbital shaking between the readings for 372 s (excitation/emission: 448∕485 nm). Seeding experiments were performed using the same setting as for the fibrillation assay as described ([39]). Briefly, the experiments were done in triplicates in the presence of 0.05 mg/ml of α-syn fibril seeds (5% seeding) and 1 mg/ml of peptides in a solution of 1 mg/ml α-syn in 96-well plates.

A further data set concerns the target T2, αSOs (Homo sapiens, UniProt P37840).
T2 construct: made in house; host or cells: Escherichia coli BL21 (DE3); oligomers formed by shaking the monomer and isolated by SEC (Superose 6)
The experiment in a line: Calcein release assay, αSOs together with peptides. The class given is biochemical. The following applies: for Effect on vesicle permeabilization by αSOs: αSOs at calcein^50% (5.2 μg/ml). On the procedure:
αSOs show cytotoxic properties, which have been attributed to their membrane-disrupting ability ([69]). To examine the effect of peptides on membrane permeabilization by αSOs, we used a simple calcein release assay. αSOs, peptides, and aSO–peptide mixtures at 10^−6 to 10^−1 mg/ml peptide were added to calcein-loaded DOPG vesicle, and the extent of calcein release was monitored for 30 min by the increase in fluorescence as calcein leaks out upon membrane permeabilization, leading to dilution and the loss of self-quenching. The time-dependent calcein release data from DOPG vesicles ([70], [71]) in the presence of peptides, αSOs, and αSO–peptides are shown in Figs. S9 and S10. In order to allow easy comparison of all peptides, the calcein release versus concentration (peptides and αSOs) were plotted at the plateau point of release (Fig. 5, A–C). […] Figure 5D compares calcein release percentages of data represented in Figure 5, A and B at peptide concentrations between 0.001 and 0.1 mg/ml, where we see the largest extent of calcein release in general.
Calcein-filled vesicles of DOPG were prepared as described before ([38]). Briefly, DOPG was dissolved in PBS to […], in the presence of calcein at self-quenching concentrations (70 mM) and subjected to 10 freeze–thaw cycles between liquid nitrogen and a 50 °C water bath. After 21 times extrusion through a 100 nm filter, free calcein was separated from vesicles with a PD-10 desalting column (GE Healthcare). Vesicles were stored at 4 °C and used for calcein release assays within 24 h.
Calcein release was measured by mixing peptides and/or αSOs at a final concentration of 10^−6 to 10^−1 mg/ml and 5.2 μg/ml, respectively, in 148 μl with 2 μl of calcein vesicles, and were then loaded onto a 96-well plate (Nunc, Thermo Fischer Scientific) in triplicate. The plate was sealed with Crystal clear sealing tape (Hampton Research), and fluorescence was measured (excitation: 485 nm and emission: 520 nm) for 1 h at 37 °C every 2 min with a 2 s autoshake before each reading on a fluorescence plate reader (Tecan). Finally, 2 μl Triton X-100 (0.2% [v/v]) was added to lyse vesicles, and the maximal fluorescence signal was measured for 20 min under the same reading condition. Background fluorescence was subtracted, and the average signal of calcein release before addition of Triton X-100 (F), after treatment with Triton X-100 (Ft) and for the buffer control (F0) were determined, and calcein release percentage was calculated as follow (Equation 1):(1) CalceinRelease%(CR%)=(F−F0)/(Ft−F0)

Another data set has as its system SH-SY5Y cells. The experiment in a line: MTT cell viability assay, substance alone. To be noted: for Cell viability (MTT): SH-SY5Y cells, 35 μg/ml peptide alone, 24 h. Here is the method: The effect of the peptides on αSOs toxicity in SH-SY5Y cells using 3-(4, 5-dimethylthiazol-2-yl)-2,5-diphenyltetrazolium bromide (MTT) cell viability assay was also tested to complement our calcein data.
We used the MTT assay to measure cell viability after 24 h treatment with αSOs in the presence of peptides. SH-SY5Y cells were seeded in 96-well plates at a density of 5 × 10^4 cell/ml in Dulbecco's modified Eagle's medium supplemented with 10% FBS, 100 unit/ml penicillin, and […]. The cells were incubated in a humidified atmosphere incubator with 5% CO2 and 95% humidity at 37 °C for 24 h. The culture medium was then replaced with fresh medium containing 10 μM αSOs with peptides and incubated for another 24 h. Then the cell medium was replaced with a fresh medium containing 20% MTT (5 mg/ml), and the cells were incubated for an additional 4 h at 37 °C. Then 100 μl of dimethyl sulfoxide was added to dissolve formazan crystals by incubating for 30 min on a shaker at RT. Consequently, absorbance was measured by using a plate reader at 570 nm.

On to RQIKIWFQNRRFKWKK [p222], for which, at α-syn, the “Effect on α-syn aggregation (ThT), in words” value (“Effect on α-syn aggregation” below) is listed as “slight aggregation-promoting effect” and the “ThT signal end level” value is “↑↑”. On αSOs (peptide 0.01 and 0.1 mg/ml), the “Effect on vesicle permeabilization by αSOs” value is listed as “increased vesicle permeabilization by αSOs”. Further, in the data set with SH-SY5Y cells, the “Toxicity to SH-SY5Y cells, in words” value was “slight toxicity”.
Take `CC(C)C[C@H](NC(=O)[C@H](Cc1c[nH]cn1)NC(=O)[C@H](CO)NC(=O)[C@H](CO)NC(=O)[C@H](C)NC(=O)[C@@H](N)CO)C(=O)N[C@@H](Cc1c[nH]cn1)C(=O)N[C@@H](Cc1c[nH]cn1)C(=O)NCC(=O)N[C@@H](Cc1c[nH]cn1)C(=O)N[C@@H](CO)C(=O)NCC(=O)NCC(=O)O` [p168] (H-SASSHLHHGHSGG-OH): the “Effect on α-syn aggregation” value on α-syn is “did not change the lag phase duration”. Further, at αSOs (peptide 10^−6 to 10^−1 mg/ml), the “Effect on vesicle permeabilization by αSOs” value is listed as “failed to affect vesicle permeabilization by αSOs”. Further, the “Cell viability (MTT)” value in the data set on SH-SY5Y cells came out at 94%.
With `CC[C@H](C)[C@H](NC(=O)[C@H](Cc1ccccc1)NC(=O)[C@H](Cc1c[nH]c2ccccc12)NC(=O)[C@H](CCCNC(=N)N)NC(=O)[C@H](CC(N)=O)NC(=O)[C@@H](NC(=O)[C@H](CCC(N)=O)NC(=O)[C@H](CCCCN)NC(=O)[C@@H](N)CCSC)[C@@H](C)CC)C(=O)N[C@@H](CCCNC(=N)N)C(=O)N[C@@H](Cc1c[nH]c2ccccc12)C(=O)N[C@@H](CCC(N)=O)C(=O)N[C@@H](CCCCN)C(=O)N[C@@H](CCCCN)C(=O)N[C@@H](CCCNC(=N)N)C(=O)N[C@@H](CCCCN)C(=O)O` [p249] (H-MKQINRWFIRWQKKRK-OH; N-terminus and C-terminus assumed), at α-syn, the “Effect on α-syn aggregation” value is listed as “slight aggregation-promoting effect”. For the same compound, the “Reduction of αSO-induced membrane permeability” value at αSOs (calcein-filled DOPG LUVs, peptide concentration not stated at the place) was 62%. Also, in the data set on SH-SY5Y cells, the “Toxicity to SH-SY5Y cells, in words” value is reported as “slight toxicity” and the “Cell viability (MTT)” value amounted to 80%.
In the case of `CC[C@H](C)[C@H](NC(=O)[C@H](Cc1c[nH]c2ccccc12)NC(=O)[C@H](CCCNC(=N)N)NC(=O)[C@H](Cc1c[nH]c2ccccc12)NC(=O)[C@H](CCCCN)NC(=O)[C@@H](NC(=O)[C@H](CCCCN)NC(=O)[C@H](CCC(N)=O)NC(=O)[C@@H](N)CC(N)=O)[C@@H](C)CC)C(=O)N[C@@H](CCC(N)=O)C(=O)N[C@@H](CCCNC(=N)N)C(=O)N[C@@H](Cc1ccccc1)C(=O)N[C@@H](CCCNC(=N)N)C(=O)N[C@@H](CCCCN)C(=O)N[C@@H](CCCCN)C(=O)N[C@@H](CCSC)C(=O)O` [p235] (H-NQKIKWRWIQRFRKKM-OH; N-terminus and C-terminus assumed), on α-syn, the “Effect on α-syn aggregation” value is “slight aggregation-promoting effect” and the “ThT signal end level” value is recorded as “↑↑”. Moreover, the “Toxicity to SH-SY5Y cells, in words” value with SH-SY5Y cells is “slight toxicity”.
